From patent US20040266623A1, “SYNERGISTIC QUINCLORAC HERBICIDAL COMPOSITIONS” (priority 2003, published 2004)

Experiments:
Test in all cases: Greenhouse pot test, postemergent spray, visual control rating converted to percent control
Format in all cases: in vivo
white clover = tested on: white clover
Procedure: (§1) Pots of crabgrass, dandelion, white clover, and plantain grown in greenhouse soiless growth media were sprayed with a greenhouse pot sprayer at 43.46 gallons of spray solution/acre and allowed to stand in the greenhouse. Visual observation of the effects made by the herbicidal compositions on the plants in the test pots was recorded for control of crabgrass, dandelion, clover and plantain at 24 hours after treatment (HAT), 48 hours after treatment (HAT), 72 hours after treatment (HAT), 7 days after treatment (DAT), 14 days after treatment (DAT) and 21 days after treatment (DAT). A control rating scale of 1 to 9 was used to record the visual observation of the effect of the herbicidal composition on the plants over the time period of the tests. 1=no control, and 9=death of plant, with intervening numbers representing successive degrees of observed effectiveness of the herbicidal composition over time. The 1-9 control rating scale was converted to percent control in the test data charts that follow.
(§2) The test protocol of S. R. Colby as set out in his article entitled “Calculating Synergistic and Antagonistic Responses of Herbicide Compositions,” received for publication Apr. 11, 1966, Contribution No. 3796 and Scientific Article No. 1271 of the Maryland Agricultural Experiment Station, Department pf Agronomy, University of Maryland was followed to evaluate the synergistic properties of the combination of quinclorac plus a herbicidal protox inhibitor, and a combination of quinclorac, plus a herbicidal protox inhibitor plus a herbicidal auxinic agent as compared with the individual herbicides, using Colby's formulas E=X+Y−XY/100 for a two herbicide combination, where E=the expected percent of inhibition of growth by herbicides, X=the percent inhibition of growth by herbicide A at p lb/A, and Y=the percent inhibition of growth by herbicide B at q lb/A, for a given combination of two herbicides. Colby's formula E=X+Y+Z−(XY+XZ+YZ)/100+XYZ/10,000, was used for the three-way herbicide combination evaluation, where E, X and Y are the same as in the two herbicide formula and Z=the percent inhibition of growth by the third herbicide.

dandelion = tested on: dandelion
Procedure: as §1, §2

plantain = tested on: plantain
Procedure: as §1, §2

crabgrass = tested on: crabgrass
Procedure: as §1, §2

[1] = Test 3, 7 DAT, scale 1=no control, 9=death of plant
[2] = Test 3, 14 DAT, scale 1=no control, 9=death of plant
[3] = Test 3, 21 DAT, scale 1=no control, 9=death of plant
[4] = Test 3, 24 HAT, scale 1=no control, 9=death of plant
[5] = Test 3, 72 HAT, scale 1=no control, 9=death of plant
[6] = Test 4, 24 HAT, scale 1=no control, 9=death of plant
[7] = Test 4, 72 HAT, scale 1=no control, 9=death of plant

Compound: Cc1cc(Cl)ccc1OCC(=O)OCCCCCC(C)C [MCPA IOE @ 1.10 lbs/A]
- % Control Clover (white clover; Test 3, 7 DAT): 66.7%
- Control (1-9) Clover (white clover; [1]): 6
- % Control Clover (white clover; Test 3, 14 DAT): 88.9%
- Control (1-9) Clover (white clover; [2]): 8
- % Control Clover (white clover; Test 3, 21 DAT): 100.0%
- Control (1-9) Clover (white clover; [3]): 9
- % Control Clover (white clover; Test 3, 24 HAT): 44.4%
- Control (1-9) Clover (white clover; [4]): 4
- % Control Clover (white clover; Test 3, 72 HAT): 44.4%
- Control (1-9) Clover (white clover; [5]): 4
- % Control Clover (white clover; Test 4, 24 HAT): 44.4%
- Control (1-9) Clover (white clover; [6]): 4
- % Control Clover (white clover; Test 4, 72 HAT): 55.6%
- Control (1-9) Clover (white clover; [7]): 5
- % Control Dandelion (dandelion; Test 3, 7 DAT): 66.7%
- Control (1-9) Dandelion (dandelion; [1]): 6
- % Control Dandelion (dandelion; Test 3, 14 DAT): 77.8%
- Control (1-9) Dandelion (dandelion; [2]): 7
- % Control Dandelion (dandelion; Test 3, 21 DAT): 88.9%
- Control (1-9) Dandelion (dandelion; [3]): 8
- % Control Dandelion (dandelion; Test 3, 24 HAT): 33.3%
- Control (1-9) Dandelion (dandelion; [4]): 3
- % Control Dandelion (dandelion; Test 3, 72 HAT): 55.6%
- Control (1-9) Dandelion (dandelion; [5]): 5
- % Control Dandelion (dandelion; Test 4, 24 HAT): 33.3%
- Control (1-9) Dandelion (dandelion; [6]): 3
- % Control Dandelion (dandelion; Test 4, 72 HAT): 55.6%
- Control (1-9) Dandelion (dandelion; [7]): 5
- % Control Plantain (plantain; Test 3, 7 DAT): 66.7%
- Control (1-9) Plantain (plantain; [1]): 6
- % Control Plantain (plantain; Test 3, 14 DAT): 77.8%
- Control (1-9) Plantain (plantain; [2]): 7
- % Control Plantain (plantain; Test 3, 21 DAT): 77.8%
- Control (1-9) Plantain (plantain; [3]): 7
- % Control Plantain (plantain; Test 3, 24 HAT): 44.4%
- Control (1-9) Plantain (plantain; [4]): 4
- % Control Plantain (plantain; Test 3, 72 HAT): 44.4%
- Control (1-9) Plantain (plantain; [5]): 4
- % Control Plantain (plantain; Test 4, 24 HAT): 22.2%
- Control (1-9) Plantain (plantain; [6]): 2
- % Control Plantain (plantain; Test 4, 72 HAT): 44.4%
- Control (1-9) Plantain (plantain; [7]): 4
- % Control Crabgrass (crabgrass; Test 3, 7 DAT): 11.1%
- Control (1-9) Crabgrass (crabgrass; [1]): 1
- % Control Crabgrass (crabgrass; Test 3, 14 DAT): 22.2%
- Control (1-9) Crabgrass (crabgrass; [2]): 2
- % Control Crabgrass (crabgrass; Test 3, 21 DAT): 44.4%
- Control (1-9) Crabgrass (crabgrass; [3]): 4
- % Control Crabgrass (crabgrass; Test 3, 24 HAT): 11.1%
- Control (1-9) Crabgrass (crabgrass; [4]): 1
- % Control Crabgrass (crabgrass; Test 3, 72 HAT): 11.1%
- Control (1-9) Crabgrass (crabgrass; [5]): 1
- % Control Crabgrass (crabgrass; Test 4, 24 HAT): 11.1%
- Control (1-9) Crabgrass (crabgrass; [6]): 1
- % Control Crabgrass (crabgrass; Test 4, 72 HAT): 11.1%
- Control (1-9) Crabgrass (crabgrass; [7]): 1

Compound: Cc1cc(Cl)ccc1OCC(=O)OCCCCCC(C)C [MCPA IOE]
- % Control Clover (white clover; Test 4, 7 DAT, 1.10 lbs/A): 66.7%
- Control (1-9) Clover (white clover; Test 4, 7 DAT, 1.10 lbs/A): 6
- % Control Clover (white clover; Test 4, 14 DAT, 1.10 lbs/A): 100.0%
- Control (1-9) Clover (white clover; Test 4, 14 DAT, 1.10 lbs/A): 9
- % Control Dandelion (dandelion; Test 4, 7 DAT, 1.10 lbs/A): 44.4%
- Control (1-9) Dandelion (dandelion; Test 4, 7 DAT, 1.10 lbs/A): 4
- % Control Dandelion (dandelion; Test 4, 14 DAT, 1.10 lbs/A): 55.6%
- Control (1-9) Dandelion (dandelion; Test 4, 14 DAT, 1.10 lbs/A): 5
- % Control Plantain (plantain; Test 4, 7 DAT, 1.10 lbs/A): 66.7%
- Control (1-9) Plantain (plantain; Test 4, 7 DAT, 1.10 lbs/A): 6
- % Control Plantain (plantain; Test 4, 14 DAT, 1.10 lbs/A): 66.7%
- Control (1-9) Plantain (plantain; Test 4, 14 DAT, 1.10 lbs/A): 6
- % Control Crabgrass (crabgrass; Test 4, 7 DAT, 1.10 lbs/A): 11.1%
- Control (1-9) Crabgrass (crabgrass; Test 4, 7 DAT, 1.10 lbs/A): 1
- % Control Crabgrass (crabgrass; Test 4, 14 DAT, 1.10 lbs/A): 11.1%
- Control (1-9) Crabgrass (crabgrass; Test 4, 14 DAT, 1.10 lbs/A): 1

Compound: O=C(O)c1c(Cl)ccc2cc(Cl)cnc12 [Quinclorac @ 0.75 lbs/A]
- % Control Clover (white clover; Test 3, 7 DAT): 44.4%
- Control (1-9) Clover (white clover; [1]): 4
- % Control Clover (white clover; Test 3, 14 DAT): 55.6%
- Control (1-9) Clover (white clover; [2]): 5
- % Control Clover (white clover; Test 3, 21 DAT): 88.9%
- Control (1-9) Clover (white clover; [3]): 8
- % Control Clover (white clover; Test 3, 24 HAT): 11.1%
- Control (1-9) Clover (white clover; [4]): 1
- % Control Clover (white clover; Test 3, 72 HAT): 22.2%
- Control (1-9) Clover (white clover; [5]): 2
- % Control Clover (white clover; Test 4, 24 HAT): 11.1%
- Control (1-9) Clover (white clover; [6]): 1
- % Control Clover (white clover; Test 4, 72 HAT): 22.2%
- Control (1-9) Clover (white clover; [7]): 2
- % Control Dandelion (dandelion; Test 3, 7 DAT): 22.2%
- Control (1-9) Dandelion (dandelion; [1]): 2
- % Control Dandelion (dandelion; Test 3, 14 DAT): 44.4%
- Control (1-9) Dandelion (dandelion; [2]): 4
- % Control Dandelion (dandelion; Test 3, 21 DAT): 33.3%
- Control (1-9) Dandelion (dandelion; [3]): 3
- % Control Dandelion (dandelion; Test 3, 24 HAT): 11.1%
- Control (1-9) Dandelion (dandelion; [4]): 1
- % Control Dandelion (dandelion; Test 3, 72 HAT): 22.2%
- Control (1-9) Dandelion (dandelion; [5]): 2
- % Control Dandelion (dandelion; Test 4, 24 HAT): 11.1%
- Control (1-9) Dandelion (dandelion; [6]): 1
- % Control Dandelion (dandelion; Test 4, 72 HAT): 22.2%
- Control (1-9) Dandelion (dandelion; [7]): 2
- % Control Plantain (plantain; Test 3, 7 DAT): 33.3%
- Control (1-9) Plantain (plantain; [1]): 3
- % Control Plantain (plantain; Test 3, 14 DAT): 55.6%
- Control (1-9) Plantain (plantain; [2]): 5
- % Control Plantain (plantain; Test 3, 21 DAT): 55.6%
- Control (1-9) Plantain (plantain; [3]): 5
- % Control Plantain (plantain; Test 3, 24 HAT): 11.1%
- Control (1-9) Plantain (plantain; [4]): 1
- % Control Plantain (plantain; Test 3, 72 HAT): 22.2%
- Control (1-9) Plantain (plantain; [5]): 2
- % Control Plantain (plantain; Test 4, 24 HAT): 11.1%
- Control (1-9) Plantain (plantain; [6]): 1
- % Control Plantain (plantain; Test 4, 72 HAT): 33.3%
- Control (1-9) Plantain (plantain; [7]): 3
- % Control Crabgrass (crabgrass; Test 3, 7 DAT): 22.2%
- Control (1-9) Crabgrass (crabgrass; [1]): 2
- % Control Crabgrass (crabgrass; Test 3, 14 DAT): 66.7%
- Control (1-9) Crabgrass (crabgrass; [2]): 6
- % Control Crabgrass (crabgrass; Test 3, 21 DAT): 77.8%
- Control (1-9) Crabgrass (crabgrass; [3]): 7
- % Control Crabgrass (crabgrass; Test 3, 24 HAT): 11.1%
- Control (1-9) Crabgrass (crabgrass; [4]): 1
- % Control Crabgrass (crabgrass; Test 3, 72 HAT): 22.2%
- Control (1-9) Crabgrass (crabgrass; [5]): 2
- % Control Crabgrass (crabgrass; Test 4, 24 HAT): 11.1%
- Control (1-9) Crabgrass (crabgrass; [6]): 1
- % Control Crabgrass (crabgrass; Test 4, 72 HAT): 22.2%
- Control (1-9) Crabgrass (crabgrass; [7]): 2
